From US20220040255A1, “CHEMOTHERAPEUTIC REMODELING OF THE GUT MICROBIOME” (THE SCRIPPS RESEARCH INSTITUTE, priority 2018, published 2022)
Where a SMILES comes first, the peptide text is derived from it. [ ]: non-standard residue; d: D form.

Tested on: bile acids
Experiment: bile acids in feces and plasma by targeted metabolomics
Type: in vivo
Conditions: WD-fed LDLr−/− mice, 2-wk treatment
Method: Measurement of secondary bile acids. Feces were obtained between 0900-1100 am from non-fasted animals after a 2-wk treatment period. Bile acids were extracted from samples according to published procedures (Wegner et al., Anal. Bioanal. Chem. 409, 1231-1245, 2017). Briefly, fecal samples were lyophilized and homogenized. Five milligrams of fecal powder were extracted with 250 μl of methanol containing heavy internal standards. Fifty microliters of plasma were extracted with 150 μL of methanol containing heavy internal standards. After vortexing for 10 minutes and centrifuging (16,000×g, 4 C, 10 min), supernatants were transferred to glass vials for injection and analysis by LCMS. Bile acids were analyzed on a Dionex Ultimate 3000 LC system (Thermo) coupled to a TSQ Quantiva mass spectrometer (Thermo) fitted with a Kinetex C18 reversed phase column (2.6 μm, 150×2.1 mm i.d., Phenomenex). The following LC solvents were used: solution A, 0.1% formic acid and 20 mM ammonium acetate in water, solution B, acetonitrile/methanol (3/1, v/v) containing 0.1% formic acid and 20 mM ammonium acetate. The following reversed phase gradient was utilized: at a flow rate of 0.2 mL/min with a gradient consisting of 25-29% B in 1 min, 29-33% B in 14 min, 33-70% B in 15 min, up to 100% B in 1 min, 100% B for 9 min and re-equilibrated to 25% B for 10 min, for a total run time of 50 min. The injection volume for all samples was 10 μL, the column oven temperature was set to 50° C. and the autosampler kept at 4° C. MS analyses were performed using electrospray ionization in positive and negative ion modes, with spray voltages of 3.5 and −3 kV, respectively, ion transfer tube temperature of 325° C., and vaporizer temperature of 275° C. Multiple reaction monitoring (MRM) was performed by using mass transitions between specific parent ions into corresponding fragment ions for each analyte.

CC(C)C[C@@H]1NC(=O)[C@@H](Cc2c[nH]c3ccccc23)NC(=O)[C@H](CCCNC(=N)N)NC(=O)[C@@H](CCC(=O)O)NC(=O)[C@H](CCC(N)=O)NC(=O)[C@@H](CCC(=O)O)NC(=O)[C@H](CCCNC(=N)N)NC(=O)[C@@H](Cc2c[nH]c3ccccc23)NC1=O [c[wLwReQeR]] (cyclo([dW]L[dW]R[dE]Q[dE]R))
CA level (feces): 440 ± 490 pmol/mg feces
DCA level (feces): 4900 ± 2400 pmol/mg feces
HCA level (feces): 1.6 ± 1.1 pmol/mg feces
LCA level (feces): 400 ± 170 pmol/mg feces
T-CA level (feces): 8.3 ± 3.3 pmol/mg feces
T-DCA level (feces): 2.6 ± 1.2 pmol/mg feces
T-HCA level (feces): 0.097 ± 0.03 pmol/mg feces
T-α-MCA level (feces): 17 ± 8.7 pmol/mg feces
T-β-MCA level (feces): 20 ± 11 pmol/mg feces
T-ω-MCA level (feces): 3 ± 1.4 pmol/mg feces
UDCA level (feces): 43 ± 16 pmol/mg feces
α-MCA level (feces): 21 ± 8.9 pmol/mg feces
β-MCA level (feces): 65 ± 12 pmol/mg feces
ω-MCA level (feces): 170 ± 100 pmol/mg feces
CA level (plasma): 6300 ± 8300 pmol/mL plasma
DCA level (plasma): 2100 ± 2100 pmol/mL plasma
HCA level (plasma): 1.0 ± 0.84 pmol/mL plasma
LCA level (plasma): 100 ± 48 pmol/mL plasma
T-CA level (plasma): 16000 ± 31000 pmol/mL plasma
T-DCA level (plasma): 830 ± 1100 pmol/mL plasma
T-HCA level (plasma): 62 ± 110 pmol/mL plasma
T-α-MCA level (plasma): 1900 ± 3900 pmol/mL plasma
T-β-MCA level (plasma): 9800 ± 22000 pmol/mL plasma
T-ω-MCA level (plasma): 2400 ± 4900 pmol/mL plasma
UDCA level (plasma): 120 ± 92 pmol/mL plasma
α-MCA level (plasma): 10 ± 5.8 pmol/mL plasma
β-MCA level (plasma): 76 ± 75 pmol/mL plasma
ω-MCA level (plasma): 33 ± 11 pmol/mL plasma
